Experimental data: patent publication US7538241B2, “Hsp90 family protein inhibitors” (Kyowa Hakko Kogyo Co., Ltd., priority 2003, dated 2009)

These molecules were tested on human chronic myelocytic leukemia-derived K562 cells (assay: Cell growth inhibition test with K562 cells (WST-1)). Conditions: 72 hours, read-out: 50% growth inhibition concentration (GI50).
Format: cell-based
Description: In a 96-well plate (Nunc), human chronic myelocytic leukemia-derived K562 cells were sown in an amount of 1500 cells/well, and pre-incubated in 10% FCS-containing Rosewell Park Memorial Institute's Medium (RPMI) 1640 (Nissui) (incubation medium) in a 5% carbon dioxide incubator at 37° C. for 5 hours. Next, a DMSO solution of a test compound controlled at 10 mmol/L was stepwise diluted with the incubation medium, and added to each well in a total amount of 100 μL/well, and further incubated in the 5% carbon dioxide incubator at 37° C. for 72 hours. After the incubation, WST-1-labeled mixture (Rosh Diagnostic) diluted 2-fold with the incubation medium was added thereto in an amount of 20 μL/well, and incubated in the 5% carbon dioxide incubator at 37° C. for 2 hours. Using a microplate spectrophotometer (Biorad's Model 550), the absorbance at 450 nm and 655 nm of each well was measured. The cell growth inhibition activity of the test compound was indicated by the 50% growth inhibition concentration (GI50) thereof, like in Test Example 2.

Row | GI50 | Compound
1 | ≤ 50 µM | CCc1c(O)cc(O)c(-c2cccc(OCCN3CCCC3=O)c2)c1CCOCC(O)CO (stereo not shown) [Compound 196, 5-[2-(2,3-Dihydroxypropoxy)ethyl]-6-ethyl-4-{3-[2-(2-oxopyrrolidin-1-yl)ethoxy]phenyl}benzene-1,3-diol]
2 | ≤ 50 µM | CCc1c(O)cc(O)c(-c2cccc(N)c2)c1CCOCC(O)CO (stereo not shown) [Compound 197, 4-(3-Aminophenyl)-5-[2-(2,3-dihydroxypropoxy)ethyl]-6-ethylbenzene-1,3-diol]
3 | ≤ 50 µM | CCc1c(O)cc(O)c(-c2ccccc2)c1CC(O)(CCCO)CCCO [Compound 199, 6-Ethyl-5-[2,5-dihydroxy-2-(3-hydroxypropyl)pentyl]-4-phenylbenzene-1,3-diol]
4 | ≤ 50 µM | CCc1c(O)cc(O)c(-c2ccccc2)c1Cc1ocnc1C(=O)OC [Compound 200, Methyl 5-[(2-ethyl-3,5-dihydroxy-6-phenylphenyl)methyl]-1,3-oxazole-4-carboxylate]
5 | ≤ 50 µM | CCc1c(O)cc(O)c(-c2cccc(NS(C)(=O)=O)c2)c1CCOCC(O)CO (stereo not shown) [Compound 202, 6-Ethyl-5-[2-(2,3-dihydroxypropoxy)ethyl]-4-{3-[N-(methylsulfonyl)amino]phenyl}benzene-1,3-diol]
6 | ≤ 50 µM | CCc1c(O)cc(O)c(-c2cccc(NS(=O)(=O)c3ccc(C)cc3)c2)c1CCOCC(O)CO (stereo not shown) [Compound 203, 5-[2-(2,3-Dihydroxypropoxy)ethyl]-6-ethyl-4-{3-[N-(4-tolylsulfonyl)amino]phenyl}benzene-1,3-diol]
7 | ≤ 50 µM | CCc1c(O)cc(O)c(-c2cccc(NC(C)=O)c2)c1CCOCC(O)CO (stereo not shown) [Compound 204, 4-[3-(N-acetylamino)phenyl]-5-[2-(2,3-dihydroxypropoxy)ethyl]-6-ethylbenzene-1,3-diol]
8 | ≤ 50 µM | CCc1c(O)cc(O)c(-c2cccc(NC(=O)c3ccccc3)c2)c1CCOCC(O)CO (stereo not shown) [Compound 205, 4-[3-(N-benzoylamino)phenyl]-5-[2-(2,3-dihydroxypropoxy)ethyl]-6-ethylbenzene-1,3-diol]
9 | ≤ 50 µM | CCNC(=O)Nc1cccc(-c2c(O)cc(O)c(CC)c2CCOCC(O)CO)c1 (stereo not shown) [Compound 206, 5-[2-(2,3-Dihydroxypropoxy)ethyl]-6-ethyl-4-[3-(3-ethylureido)phenyl]benzene-1,3-diol]
10 | ≤ 50 µM | CCc1c(O)cc(O)c(-c2cccc(NC(=O)C(C)(CO)CO)c2)c1CCOCC(O)CO (stereo not shown) [Compound 207, 5-[2-(2,3-Dihydroxypropoxy)ethyl]-6-ethyl-4-{3-[2-hydroxy-1-(hydroxymethyl)-1-methylethylcarbonylamino]phenyl}benzene-1,3-diol]
11 | ≤ 50 µM | CCc1c(O)cc(O)c(-c2ccccc2)c1Cc1ocnc1CO [Compound 208, 6-Ethyl-5-{[4-(hydroxymethyl)-1,3-oxazol-5-yl]methyl}-4-phenylbenzene-1,3-diol]
12 | ≤ 50 µM | CCc1c(O)cc(O)c(-c2ccccc2)c1CC1OCC(CO)O1 (stereo not shown) [Compound 211, 6-Ethyl-5-[(4-hydroxymethyl-1,3-dioxolan-2-yl)methyl]-4-phenylbenzene-1,3-diol]
13 | ≤ 50 µM | CCc1c(O)cc(O)c(-c2ccccc2)c1CCC(N)=O [Compound 212, 3-(2-Ethyl-3,5-dihydroxy-6-phenylphenyl)propanamide]
14 | ≤ 50 µM | CCc1c(O)cc(O)c(-c2ccccc2)c1CCC(C(=O)OC)C(=O)OC [Compound 213, Methyl 4-(2-ethyl-3,5-dihydroxy-6-phenylphenyl)-2-(methoxycarbonyl)butanoate]
15 | ≤ 50 µM | CCc1c(O)cc(O)c(-c2ccccc2)c1C=CC(CO)CO [Compound 214, 6-ethyl-5-[4-hydroxy-3-(hydroxymethyl)but-1-en-1-yl]-4-phenylbenzene-1,3-diol]
16 | ≤ 50 µM | CCc1c(O)cc(O)c(-c2ccccc2)c1CCC(CO)CO [Compound 215, 6-Ethyl-5-[4-hydroxy-3-(hydroxymethyl)butyl]-4-phenylbenzene-1,3-diol]
17 | ≤ 50 µM | CCc1c(O)cc(O)c(-c2ccccc2)c1CCCC(CO)CO [Compound 217, 6-Ethyl-5-[5-hydroxy-4-(hydroxymethyl)pentyl]-4-phenylbenzene-1,3-diol]
18 | ≤ 50 µM | CCc1c(O)cc(O)c(-c2cccc(O)c2)c1CCOCC1CO1 (stereo not shown) [Compound 219, 6-Ethyl-4-(3-hydroxyphenyl)-5-[2-(oxiran-2-ylmethoxy)ethyl]benzene-1,3-diol]
19 | ≤ 50 µM | CCc1c(O)cc(O)c(-c2ccccc2)c1CCC(=O)NCCO [Compound 220, 3-(2-Ethyl-3,5-dihydroxy-6-phenylphenyl)-N-(2-hydroxyethyl)propanamide]

Row | GI50 | Compound
20 | ≤ 50 µM | CCc1c(O)cc(O)c(-c2ccccc2)c1CCC(=O)NCCNC(C)=O [Compound 221, N-[2-(acetylamino)ethyl]-3-(2-ethyl-3,5-dihydroxy-6-phenylphenyl)propanamide]
21 | ≤ 50 µM | CCc1c(O)cc(O)c(-c2ccccc2)c1CCc1ocnc1C(N)=O [Compound 222, 5-[2-(2-Ethyl-3,5-dihydroxy-6-phenylphenyl)ethyl]-1,3-oxazole-4-carboxamide]
22 | ≤ 50 µM | CCc1c(O)cc(O)c(-c2ccccc2)c1CCc1ocnc1C(=O)NCCO [Compound 223, 5-[2-(2-Ethyl-3,5-dihydroxy-6-phenylphenyl)ethyl]-N-(2-hydroxyethyl)-1,3-oxazole-4-carboxamide]
23 | ≤ 50 µM | CCc1c(O)cc(O)c(-c2ccccc2)c1CCc1ocnc1C(=O)N(CCO)CCO [Compound 224, 5-[2-(2-ethyl-3,5-dihydroxy-6-phenylphenyl)ethyl]-N,N-bis(2-hydroxyethyl)-1,3-oxazole-4-carboxamide]
24 | ≤ 50 µM | CCc1c(O)cc(O)c(-c2ccccc2)c1CCc1ocnc1C(=O)NC(CO)CO [Compound 225, 5-[2-(2-ethyl-3,5-dihydroxy-6-phenylphenyl)ethyl]-N-[2-hydroxy-1-(hydroxymethyl)ethyl]-1,3-oxazole-4-carboxamide]
25 | ≤ 50 µM | CCc1c(O)cc(O)c(-c2ccccc2)c1CCc1ocnc1C(=O)NCC(O)CO (stereo not shown) [Compound 226, N-(2,3-dihydroxypropyl)-5-[2-(2-ethyl-3,5-dihydroxy-6-phenylphenyl)ethyl]-1,3-oxazole-4-carboxamide]
26 | ≤ 50 µM | CCc1c(O)cc(O)c(-c2cccc(C)c2)c1CC1O[C@H](CO)[C@@H](CO)O1 [Compound 228, 5-{[(4R,5R)-4,5-bis(hydroxymethyl)-1,3-dioxolan-2-yl]methyl}-6-ethyl-4-(3-methylphenyl)benzene-1,3-diol]
27 | ≤ 50 µM | OC[C@H]1OC(Cc2cc(O)cc(O)c2-c2ccccc2)O[C@@H]1CO [Compound 230, 5-{[(4R,5R)-4,5-bis(hydroxymethyl)-1,3-dioxolan-2-yl]methyl}-4-phenylbenzene-1,3-diol]
28 | ≤ 50 µM | OC[C@H]1OC(Cc2c(Br)c(O)cc(O)c2-c2ccccc2)O[C@@H]1CO [Compound 232, 5-{[(4R,5R)-4,5-bis(hydroxymethyl)-1,3-dioxolan-2-yl]methyl}-6-bromo-4-phenylbenzene-1,3-diol]
29 | ≤ 50 µM | CCc1c(O)cc(O)c(-c2cccc(OC)c2)c1CC1O[C@@H](CO)[C@H](CO)O1 [Compound 233, 5-{[(4S,5S)-4,5-Bis(hydroxymethyl)-1,3-dioxolan-2-yl]methyl}-6-ethyl-4-(3-methoxyphenyl)benzene-1,3-diol]
30 | ≤ 50 µM | CC(=O)c1c(O)cc(O)c(-c2ccccc2)c1CC1O[C@H](CO)[C@@H](CO)O1 [Compound 234, 1-(6-{[(4R,5R)-4,5-bis(hydroxymethyl)-1,3-dioxolan-2-yl]methyl}-2,4-dihydroxy-5-phenylphenyl)ethanone]
31 | ≤ 50 µM | COC(=O)Cc1cc(O)cc(O)c1-c1ccc(CCC(C)=O)o1 [Compound 261, Methyl 3,5-dihydroxy-2-[5-(3-oxobutyl)furan-2-yl]phenylacetate]
32 | ≤ 50 µM | OC[C@H]1OC(Cc2c(Cl)c(O)cc(O)c2-c2ccccc2)O[C@@H]1CO [Compound 280, 5-{[(4R,5R)-4,5-bis(hydroxymethyl)-1,3-dioxolan-2-yl]methyl}-6-chloro-4-phenylbenzene-1,3-diol]
33 | ≤ 50 µM | CCc1c(O)cc(O)c(-c2cccc(O)c2)c1CC1O[C@@H](CO)[C@H](CO)O1 [Compound 281, 5-{[(4S,5S)-4,5-bis(hydroxymethyl)-1,3-dioxolan-2-yl]methyl}-6-ethyl-4-(3-hydroxyphenyl)benzene-1,3-diol]
34 | ≤ 50 µM | CCc1c(O)cc(O)c(-c2cccc(F)c2)c1CC1O[C@@H](CO)[C@H](CO)O1 [Compound 282, 5-{[(4S,5S)-4,5-bis(hydroxymethyl)-1,3-dioxolan-2-yl]methyl}-6-ethyl-4-(3-fluorophenyl)benzene-1,3-diol]
35 | ≤ 50 µM | CCc1c(O)cc(O)c(-c2cc(C)cc(C)c2)c1CC1O[C@@H](CO)[C@H](CO)O1 [Compound 283, 5-{[(4S,5S)-4,5-bis(hydroxymethyl)-1,3-dioxolan-2-yl]methyl}-4-(3,5-dimethylphenyl)-6-ethylbenzene-1,3-diol]
36 | ≤ 50 µM | CCc1c(O)cc(O)c(-c2cccc(NC(C)=O)c2)c1CC1O[C@@H](CO)[C@H](CO)O1 [Compound 284, 4-[3-(acetylamino)phenyl]-5-{[(4S,5S)-4,5-bis(hydroxymethyl)-1,3-dioxolan-2-yl]methyl}-6-ethylbenzene-1,3-diol]
37 | ≤ 50 µM | OC[C@@H]1OC(Cc2c(Cl)c(O)cc(O)c2-c2ccccc2)O[C@H]1CO [Compound 285, 5-{[(4S,5S)-4,5-bis(hydroxymethyl)-1,3-dioxolan-2-yl]methyl}-6-chloro-4-phenylbenzene-1,3-diol]
